Data set [1] in a line: Acute intravenous toxicity in white mice. As to conditions: mouse, in vivo, injected intravenously.
For the next data set, the system named is resting heart rate. As to the kind of experiment: Effect on resting (basic) heart rate in reserpinized, vagotomized rats (Experiment 3). In kind it is in vivo, rat. Conditions: i.v., cumulative. The method, then: (§1) The effects of certain compounds on isoproterenol-induced tachycardia as well as on resting heart rate were studied in reserpinized, vagotomized rats. The rat was anaesthetized with pentobarbital 18 hours after treatment with reserpine (8 mg./kg., i.p.) and vagotomized bilaterally in the neck. Heart rate was recorded by a cardiotacho-meter (RT-2, Nihonkoden). After the control response to l-isoproterenol (0.1 μg./kg., i.v.) was obtained, each compound tested was injected intravenously in such doses that the cumulative dose increased four-fold: 0.01-0.04-0.16-0.64-2.56 mg./kg., at 20 minute intervals. Ten minutes after each dose of the compound an intravenous injection of l-isoproterenol (0.1 μg./kg.) was administered and the increase in heart rate was recorded. The dose producing 50% blockade of the positive chronotropic control response to l-isoproterenol (ED-50) was estimated in each experiment from curves obtained by plotting inhibition percentage against log cumulative dose.
abbreviations; ^a) BHR : Basic heart rate (the heart rate just before
administration of l-isoproterenol, unit = beat per minute)

In data set [2] the test system is heart devoid of autonomous nervous control. As to the kind of experiment: Direct effect on heart rate of a heart devoid of autonomous nervous control, reserpinized, adrenalectomized, vagotomized rats (Experiment 2). In kind it is in vivo, Wistar rats. Conditions: for Change of heart rate (%): + increase, - decrease. The method, then:
Experiment 2 […] Both adrenal glands were removed and bilateral vagotomy in the neck was performed. […] (RM 100). In Table 2, the symbol + represents an increase in heart rate, while the symbol - represents a decrease in heart rate. The standard error is shown in parenthesis.

Data set [3] addresses T1, adrenergic β-receptor (Cavia porcellus, UniProt H0W3H1).
T1 construct: The atria obtained from a male Hartley guinea pig; from tissue; host or cells: isolated atria of male Hartley guinea pig
As to the kind of experiment: Antagonism of l-isoproterenol-induced increase of atrial contraction, isolated guinea pig atria (Experiment 1). Details: species or system male Hartley guinea pig. As to conditions: l-isoproterenol 5 × 10^-8 g./ml., 10 minutes previously. As for the experimental part:
The atria obtained from a male Hartley guinea pig weighing 300-500 g. were trimmed and placed in chambers containing Tyrode solution oxygenated with 95% oxygen and 5% carbon dioxide and maintained at 30° C.
Contractile force was recorded by an isometric lever connected to a strain gauge tension transducer. Antagonistic activity of the tested drugs on the 1-isoproterenol-induced increase of the atrial contraction was investigated.
The first control response was measured adding 1-isoproterenol to the bath fluid to a final concentration of 5 × 10^-8 g./ml. Then the preparation was washed and the same procedure was repeated after application of the drugs to be tested, i.e. 4-(3-isopropylamino-2-hydroxypropoxy)indene and 4-(3-isopropylamino-2-hydroxypropoxy)indane (final concentrations of 8 × 10^-9 g./ml. and 5 × 10^-8 g./ml.), 10 minutes previously.

Data set [4] concerns the target T2, adrenergic β-receptor (Rattus norvegicus, UniProt P18090).
T2 construct: studied in reserpinized, vagotomized rats; from tissue; host or cells: heart in the living, anaesthetized rat (in vivo heart rate)
Description: Blockade of isoproterenol-induced tachycardia in reserpinized, vagotomized rats (Experiment 3). In kind it is in vivo. Conditions: for Res: Response (percent increase of heart rate induced by 0.1 μg/kg l-isoproterenol): i.v., cumulative, Control = 100; for ED50: rat, iv, read-out: ED50 (dose producing 50% blockade of the positive chronotropic control response to l-isoproterenol). The method, then: as §1, with “After the control response to l-isoproterenol (0.1 μg./kg., i.v.) was obtained, each compound tested was injected intravenously in such doses that the cumulative dose increased four-fold: 0.01-0.04-0.16-0.64-2.56 mg./kg., at 20 minute intervals.” left out

[5] abbreviates: 0.01 mg./kg. i.v., 1 minute after.
Where [6] appears, read: 0.01 mg./kg. i.v., 5 minutes after.
[7] abbreviates: 0.01 mg./kg. i.v., 15 minutes after.
[8] abbreviates: 0.01 mg./kg. i.v., 30 minutes after.
Setting [9] is: 0.05 mg./kg. i.v., 1 minute after.
[10] abbreviates: 0.05 mg./kg. i.v., 5 minutes after.
The mark [11] stands for this setting: 0.05 mg./kg. i.v., 15 minutes after.
Setting [12] is: 0.05 mg./kg. i.v., 30 minutes after.
Where [13] appears, read: 0.10 mg./kg. i.v., 1 minute after.
[14] abbreviates: 0.10 mg./kg. i.v., 5 minutes after.
Where [15] appears, read: 0.10 mg./kg. i.v., 15 minutes after.
Setting [16] is: 0.10 mg./kg. i.v., 30 minutes after.
The mark [17] stands for this setting: final concentration 5 × 10^-8 g./ml.
Setting [18] is: final concentration 8 × 10^-9 g./ml.
[19] abbreviates: cumulative dose, l-isoproterenol 0.1 μg./kg. i.v., ± standard error.

Each structure is given as a SMILES string. Where two headings read alike, the source gives them in different places.

What is called LD50 is the dose at which mortality reaches 50%. A lower LD50 goes with a more toxic substance. The term ED50 denotes the dose that gives a 50% effect, or the effect in half of the subjects.

T1 sequence (H0W3H1 1-470): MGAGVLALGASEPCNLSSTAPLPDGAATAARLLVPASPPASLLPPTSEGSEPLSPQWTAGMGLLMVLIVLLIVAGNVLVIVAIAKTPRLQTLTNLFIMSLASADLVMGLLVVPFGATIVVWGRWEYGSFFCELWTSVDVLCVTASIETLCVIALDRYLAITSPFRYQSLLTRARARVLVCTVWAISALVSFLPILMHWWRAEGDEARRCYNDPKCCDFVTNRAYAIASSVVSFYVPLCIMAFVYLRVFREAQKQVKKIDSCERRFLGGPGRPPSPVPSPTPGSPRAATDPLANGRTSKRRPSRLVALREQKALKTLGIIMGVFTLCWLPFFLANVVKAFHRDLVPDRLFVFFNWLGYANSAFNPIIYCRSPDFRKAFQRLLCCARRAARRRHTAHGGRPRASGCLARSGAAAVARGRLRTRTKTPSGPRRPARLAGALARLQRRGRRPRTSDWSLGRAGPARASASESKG
T2 sequence (P18090 whole entry): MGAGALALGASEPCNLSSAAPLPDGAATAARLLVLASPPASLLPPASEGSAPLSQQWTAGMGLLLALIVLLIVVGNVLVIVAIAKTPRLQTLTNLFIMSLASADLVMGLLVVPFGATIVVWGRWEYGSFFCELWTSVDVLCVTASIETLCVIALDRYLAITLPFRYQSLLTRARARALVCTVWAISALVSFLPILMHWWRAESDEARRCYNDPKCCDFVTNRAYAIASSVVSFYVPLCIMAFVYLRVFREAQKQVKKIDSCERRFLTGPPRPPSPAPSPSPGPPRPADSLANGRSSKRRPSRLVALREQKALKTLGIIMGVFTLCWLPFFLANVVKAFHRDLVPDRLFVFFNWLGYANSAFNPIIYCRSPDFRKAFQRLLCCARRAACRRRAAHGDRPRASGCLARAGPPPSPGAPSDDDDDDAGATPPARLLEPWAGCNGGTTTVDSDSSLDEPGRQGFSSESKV

In turn, `CC(C)NCC(O)COc1cccc2c1C=CC2` (racemic) [4-(3-isopropylamino-2-hydroxypropoxy)indene] showed an LD50 in data set [1] of 25 mg/kg. Further, the “BHR: Basic heart rate (just before administration of l-isoproterenol)” value (“BHR: Basic heart rate” for short) amounted to 235±12 beat per minute with resting heart rate (0.01 mg/kg), 246±13 beat per minute in the data set on resting heart rate (0.04 mg/kg), 245±14 beat per minute in the data set with resting heart rate (0.16 mg/kg) and 245±12 beat per minute with resting heart rate (0.64 mg/kg). Moreover, the “Change of heart rate (%)” value in data set [2] (setting [5]) is “+2.4%”; in data set [2] (setting [6]) it was “+3.8%”; in data set [2] (setting [7]), “+3.2%”; in data set [2] (setting [8]) it was “+1.7%”; in data set [2] (setting [9]) it was “+5.6%”; in data set [2] (setting [10]), “+8.4%”. The “Change of heart rate (%)” value in data set [2] (setting [11]) is given as “+8.7%”; in data set [2] (setting [12]) it was “+5.2%”; in data set [2] (setting [13]), “+1.5%”; in data set [2] (setting [14]), “+4.1%”; in data set [2] (setting [15]), “+3.5%”; in data set [2] (setting [16]) it was “+4.0%”. Moreover, the “Inhibition rate (%)” value is recorded as 81.5% on adrenergic β-receptor [3] (setting [17]) and 30.7% at adrenergic β-receptor [3] (setting [18]). Further, the “Res: Response (percent increase of heart rate induced by 0.1 μg/kg l-isoproterenol)” value at adrenergic β-receptor [4] (0.01 mg/kg) was 74±3%; at adrenergic β-receptor [4] (0.04 mg/kg), 50±2%; on adrenergic β-receptor [4] (0.16 mg/kg), 23±2%; on adrenergic β-receptor [4] (0.64 mg/kg) it was 5±1%. Also, the ED50 at adrenergic β-receptor [4] (setting [19]) stood at 0.039 ± 0.002 mg/kg.
For `CC(C)NCC(O)COc1cccc2c1CCC2` (stereo not drawn) [4-(3-isopropylamino-2-hydroxypropoxy)indane], the “BHR: Basic heart rate” value was 245±15 beat per minute with resting heart rate (0.04 mg/kg), 236±14 beat per minute in the data set with resting heart rate (0.16 mg/kg) and 238±17 beat per minute in the data set on resting heart rate (0.64 mg/kg). Besides, the “Change of heart rate (%)” value in data set [2] (setting [5]) was -0.9%; in data set [2] (setting [6]), “+0.3%”; in data set [2] (setting [7]), -1.9%; in data set [2] (setting [8]) it was -1.7%; in data set [2] (setting [9]) it was -2.1%; in data set [2] (setting [10]), -2.0%. The “Change of heart rate (%)” value in data set [2] (setting [11]) was -2.0%; in data set [2] (setting [12]), -4.6%; in data set [2] (setting [13]) it was -5.9%; in data set [2] (setting [14]) it was -8.7%; in data set [2] (setting [15]), -8.7%; in data set [2] (setting [16]), -5.4%. Moreover, the “effect on the cardiac function (in words)” value in data set [2] (Experiment 2) is reported as “deleterious effects on the cardiac function”. Moreover, the “Inhibition rate (%)” value at adrenergic β-receptor [3] (setting [17]) was 88.4%; on adrenergic β-receptor [3] (setting [18]), 30.4%. The figures for the “Res: Response (percent increase of heart rate induced by 0.1 μg/kg l-isoproterenol)” value on adrenergic β-receptor [4] (0.04 mg/kg), on adrenergic β-receptor [4] (0.16 mg/kg) and on adrenergic β-receptor [4] (0.64 mg/kg) were 54±5%, 33±14% and 12±1%, respectively. The ED50 at adrenergic β-receptor [4] (setting [19]) was 0.065 ± 0.013 mg/kg.
On to `CCC(C)NCC(O)COc1cccc2c1C=CC2` (stereo not drawn) [4-(3-sec-butylamino-2-hydroxypropoxy)indene], for which the “BHR: Basic heart rate” value was found to be 200±13 beat per minute in the data set with resting heart rate (0.01 mg/kg); 218±13 beat per minute in the data set with resting heart rate (0.04 mg/kg); 225±14 beat per minute with resting heart rate (0.16 mg/kg); 236±16 beat per minute in the data set with resting heart rate (0.64 mg/kg); 228±23 beat per minute in the data set with resting heart rate (2.56 mg/kg). In addition, the “Res: Response (percent increase of heart rate induced by 0.1 μg/kg l-isoproterenol)” value is recorded as 81±4% at adrenergic β-receptor [4] (0.01 mg/kg); 65±1% at adrenergic β-receptor [4] (0.04 mg/kg); 40±5% on adrenergic β-receptor [4] (0.16 mg/kg); 17±3% on adrenergic β-receptor [4] (0.64 mg/kg); 6±1% on adrenergic β-receptor [4] (2.56 mg/kg). In addition, the ED50 on adrenergic β-receptor [4] (setting [19]) came out at 0.088 ± 0.011 mg/kg.
On to `C=CCc1ccccc1OCC(O)CNC(C)C` (stereo not drawn) [alprenolol (Aptin), alprenolol, reference compound], for which the “BHR: Basic heart rate” value in the data set on resting heart rate (0.01 mg/kg) is 233±12 beat per minute; in the data set on resting heart rate (0.04 mg/kg), 247±11 beat per minute; in the data set on resting heart rate (0.16 mg/kg), 261±7 beat per minute; in the data set on resting heart rate (0.64 mg/kg), 262±4 beat per minute. Besides, the “Res: Response (percent increase of heart rate induced by 0.1 μg/kg l-isoproterenol)” value on adrenergic β-receptor [4] (0.01 mg/kg) was 65±3%; on adrenergic β-receptor [4] (0.04 mg/kg), 44±3%; at adrenergic β-receptor [4] (0.16 mg/kg), 17±3%; on adrenergic β-receptor [4] (0.64 mg/kg), 3±1%. Moreover, the ED50 at adrenergic β-receptor [4] turned out to be 0.03 ± 0.003 mg/kg.

Source of the values: patent publication US4127675A, “4-(Alkylamino-2-hydroxypropoxy)-indenes and method of use” (Yamanouchi Pharmaceutical Co., Ltd., priority 1968, dated 1978).
